{"source": "the supplement of paper PMC11208160", "data": [{"assay": "recombinant barcode read abundance after kanamycin selection (control-corrected) (log10(CPM+1)); higher = more efficient recombination; sequences stand for … in AGTGCAGAGAAAATCGGCCAGTTTTCTCTGCCTGCAGTCCGCATGCCGT…AGATTTATGCAGCGGACTGCCTTTCTCCCAAAGTGATAAACCGGACAGTATCATGGACCGGTTTTCCCGGTAATCCGTATTTGCAAGGTTGGTTTCACT; site = the 11-nt target", "summary_of_the_method": "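Pooled E. coli screen pairing targets with IS621 bridge RNA target-binding loops. Each oligo (promoter, target, barcode, J23119-driven first 104 bridge RNA bases) was Gibson-cloned into a vector with the remaining 73 bp and T7-inducible recombinase, then co-electroporated with a donor plasmid. Two replicates each were plated on chloramphenicol/ampicillin LB agar (control) or chloramphenicol/ampicillin/kanamycin with 0.1 mM IPTG. Recombination efficiency is recombinant-junction barcode counts as CPM, averaged, control-corrected, reported as log10(CPM+1).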", "values": [{"sequence": "GGGGACCCTTGGGTTCTAACCTGTTGCGG (site GGGGACCCTCC)", "recombinant barcode read abundance (log10)": 3.01}, {"sequence": "GGGGACCCTTGGGTTCTAACCTGTTGCGG (site GGGGACCCTGC)", "recombinant barcode read abundance (log10)": 0.667}, {"sequence": "GGGGACCCTTGGGTTCTAACCTGTTGCGG (site GGGGACCCTTC)", "recombinant barcode read abundance (log10)": 1.55}, {"sequence": "GGGGACCCTTGGGTTCTAACCTGTTGCGT (site GGGGACCCTAC)", "recombinant barcode read abundance (log10)": 3.4}, {"sequence": "GGGGACCCTTGGGTTCTAACCTGTTGCGT (site GGGGACCCTCC)", "recombinant barcode read abundance (log10)": 1.46}, {"sequence": "GGGGACCCTTGGGTTCTAACCTGTTGCGT (site GGGGACCCTGC)", "recombinant barcode read abundance (log10)": 1.44}, {"sequence": "GGGGACCCTTGGGTTCTAACCTGTTGCGT (site GGGGACCCTTC)", "recombinant barcode read abundance (log10)": 1.18}, {"sequence": "GGGGAGTCTTGGGTTCTAACCTGTTGCTT (site GGGGAGCCTCA)", "recombinant barcode read abundance (log10)": 0.16}, {"sequence": "GGGGAGTCTTGGGTTCTAACCTGTTGCTT (site GGGGAGTCTAA)", "recombinant barcode read abundance (log10)": 2.26}, {"sequence": "GGGGCAACTTGGGTTCTAACCTGTTGCTA (site CGGGCTACTTA)", "recombinant barcode read abundance (log10)": 0.0424}, {"sequence": "GGGGCAACTTGGGTTCTAACCTGTTGCTA (site GGGGCAACTTA)", "recombinant barcode read abundance (log10)": 0.388}, {"sequence": "GGGGCACCTTGGGTTCTAACCTGTTGCCT (site GGGGCACCTAA)", "recombinant barcode read abundance (log10)": 0.216}, {"sequence": "GGGGCACCTTGGGTTCTAACCTGTTGCCT (site GGGGCACCTAC)", "recombinant barcode read abundance (log10)": 0.0542}, {"sequence": "GGGGCACCTTGGGTTCTAACCTGTTGCCT (site GGGGCACCTAG)", "recombinant barcode read abundance (log10)": 1.15}, {"sequence": "GGGGCACCTTGGGTTCTAACCTGTTGCCT (site GGGGCACCTAT)", "recombinant barcode read abundance (log10)": 0.556}, {"sequence": "GGGGCACCTTGGGTTCTAACCTGTTGCTT (site GGGGCACCTAA)", "recombinant barcode read abundance (log10)": 2.29}, {"sequence": "GGGGCACCTTGGGTTCTAACCTGTTGCTT (site GGGGCACCTAC)", "recombinant barcode read abundance (log10)": 0.68}, {"sequence": "GGGGCACCTTGGGTTCTAACCTGTTGCTT (site GGGGCACCTAG)", "recombinant barcode read abundance (log10)": 1.48}, {"sequence": "GGGGCACCTTGGGTTCTAACCTGTTGCTT (site GGGGCACCTAT)", "recombinant barcode read abundance (log10)": 2.06}, {"sequence": "GGGGCGTCTTGGGTTCTAACCTGTTGCTT (site GGGGCATCTAA)", "recombinant barcode read abundance (log10)": 1.54}, {"sequence": "GGGGCGTCTTGGGTTCTAACCTGTTGCTT (site GGGGCCTCTAA)", "recombinant barcode read abundance (log10)": 0.0129}, {"sequence": "GGGGCGTCTTGGGTTCTAACCTGTTGCTT (site GGGGCGTCTAA)", "recombinant barcode read abundance (log10)": 2.16}, {"sequence": "GGGGCGTCTTGGGTTCTAACCTGTTGCTT (site GGGGCTTCTAA)", "recombinant barcode read abundance (log10)": 0.0767}, {"sequence": "GGGGCTACTTGGGTTCTAACCTGTTGCCT (site GGGGCTACTAG)", "recombinant barcode read abundance (log10)": 0.396}, {"sequence": "GGGGCTACTTGGGTTCTAACCTGTTGCCT (site GGGGCTACTGT)", "recombinant barcode read abundance (log10)": 0.183}, {"sequence": "GGGGTCCCTTGGGTTCTAACCTGTTGCTT (site CTCAAAGCTTC)", "recombinant barcode read abundance (log10)": 0.0621}, {"sequence": "GGGGTCCCTTGGGTTCTAACCTGTTGCTT (site GGGGTCCCTAA)", "recombinant barcode read abundance (log10)": 2.79}, {"sequence": "GGGTCCACTTGGGTTCTAACCTGTTGCAT (site GGGTCCACTAA)", "recombinant barcode read abundance (log10)": 0.481}, {"sequence": "GGGTCCACTTGGGTTCTAACCTGTTGCAT (site GGGTCCACTAC)", "recombinant barcode read abundance (log10)": 0.13}, {"sequence": "GGGTCCACTTGGGTTCTAACCTGTTGCAT (site GGGTCCACTAG)", "recombinant barcode read abundance (log10)": 0.699}, {"sequence": "GGGTCCACTTGGGTTCTAACCTGTTGCAT (site GGGTCCACTAT)", "recombinant barcode read abundance (log10)": 2.17}, {"sequence": "GGGTCCACTTGGGTTCTAACCTGTTGCGT (site GGGTCCACTAA)", "recombinant barcode read abundance (log10)": 0.239}, {"sequence": "GGGTCCACTTGGGTTCTAACCTGTTGCGT (site GGGTCCACTAC)", "recombinant barcode read abundance (log10)": 2.82}, {"sequence": "GGGTCCACTTGGGTTCTAACCTGTTGCGT (site GGGTCCACTAG)", "recombinant barcode read abundance (log10)": 1.5}, {"sequence": "GGGTCCACTTGGGTTCTAACCTGTTGCGT (site GGGTCCACTAT)", "recombinant barcode read abundance (log10)": 1.45}, {"sequence": "GGGTCCTCTTGGGTTCTAACCTGTTGCCC (site GGGTCCTCTAG)", "recombinant barcode read abundance (log10)": 1.36}, {"sequence": "GGGTCCTCTTGGGTTCTAACCTGTTGCCC (site GGGTCCTCTCG)", "recombinant barcode read abundance (log10)": 0.0863}, {"sequence": "GGGTCCTCTTGGGTTCTAACCTGTTGCCC (site GGGTCCTCTGG)", "recombinant barcode read abundance (log10)": 1.23}, {"sequence": "GGGTCCTCTTGGGTTCTAACCTGTTGCCC (site GGGTCCTCTTG)", "recombinant barcode read abundance (log10)": 0.0208}, {"sequence": "GGGTCCTCTTGGGTTCTAACCTGTTGCCG (site GGGTCCTCTAG)", "recombinant barcode read abundance (log10)": 1.32}, {"sequence": "GGGTCCTCTTGGGTTCTAACCTGTTGCCG (site GGGTCCTCTCG)", "recombinant barcode read abundance (log10)": 2.01}, {"sequence": "GGGTCCTCTTGGGTTCTAACCTGTTGCCG (site GGGTCCTCTGG)", "recombinant barcode read abundance (log10)": 0.422}, {"sequence": "GGGTCCTCTTGGGTTCTAACCTGTTGCCG (site GGGTCCTCTTG)", "recombinant barcode read abundance (log10)": 0.205}, {"sequence": "GGGTTCACTTGGGTTCTAACCTGTTGCCG (site GAGTTCACTAG)", "recombinant barcode read abundance (log10)": 0.0415}, {"sequence": "GGGTTCACTTGGGTTCTAACCTGTTGCCG (site GGGTTCACTCG)", "recombinant barcode read abundance (log10)": 1.43}, {"sequence": "GGGTTGCCTTGGGTTCTAACCTGTTGCCT (site GAGTTGCCTAG)", "recombinant barcode read abundance (log10)": 0.945}, {"sequence": "GGGTTGCCTTGGGTTCTAACCTGTTGCCT (site GCGTTGCCTAG)", "recombinant barcode read abundance (log10)": 1.1}, {"sequence": "GGGTTGCCTTGGGTTCTAACCTGTTGCCT (site GGGTTGCCTAG)", "recombinant barcode read abundance (log10)": 1.46}, {"sequence": "GGGTTGCCTTGGGTTCTAACCTGTTGCCT (site GTGTTGCCTAG)", "recombinant barcode read abundance (log10)": 0.144}, {"sequence": "GGTAAGACTTGGGTTCTAACCTGTTGCCT (site GGAAAGACTAG)", "recombinant barcode read abundance (log10)": 0.31}, {"sequence": "GGTAAGACTTGGGTTCTAACCTGTTGCCT (site GGCAAGACTAG)", "recombinant barcode read abundance (log10)": 0.318}, {"sequence": "GGTAAGACTTGGGTTCTAACCTGTTGCCT (site GGGAAGACTAG)", "recombinant barcode read abundance (log10)": 0.197}, {"sequence": "GGTAAGACTTGGGTTCTAACCTGTTGCCT (site GGTAAGACTAG)", "recombinant barcode read abundance (log10)": 1.47}, {"sequence": "GGTATGTCTTGGGTTCTAACCTGTTGCTG (site CGAATGTCTCA)", "recombinant barcode read abundance (log10)": 0.119}, {"sequence": "GGTATGTCTTGGGTTCTAACCTGTTGCTG (site GGTATGTCTCA)", "recombinant barcode read abundance (log10)": 0.857}, {"sequence": "GGTATGTCTTGGGTTCTAACCTGTTGCTT (site GCTATGTCTAG)", "recombinant barcode read abundance (log10)": 0.0865}, {"sequence": "GGTATGTCTTGGGTTCTAACCTGTTGCTT (site GGTATGTCTAA)", "recombinant barcode read abundance (log10)": 0.641}, {"sequence": "GGTCAACCTTGGGTTCTAACCTGTTGCCT (site GATCAACCTAG)", "recombinant barcode read abundance (log10)": 0.394}, {"sequence": "GGTCAACCTTGGGTTCTAACCTGTTGCCT (site GCTCAACCTAG)", "recombinant barcode read abundance (log10)": 0.172}, {"sequence": "GGTCAACCTTGGGTTCTAACCTGTTGCCT (site GGTCAACCTAG)", "recombinant barcode read abundance (log10)": 1.14}, {"sequence": "GGTCAACCTTGGGTTCTAACCTGTTGCCT (site GTTCAACCTAG)", "recombinant barcode read abundance (log10)": 0.486}, {"sequence": "GGTCAGTCTTGGGTTCTAACCTGTTGCGG (site GGTCAGTCTCC)", "recombinant barcode read abundance (log10)": 1.84}, {"sequence": "GGTCAGTCTTGGGTTCTAACCTGTTGCGG (site TAGTTTACTTA)", "recombinant barcode read abundance (log10)": 0.0859}, {"sequence": "GGTCATGCTTGGGTTCTAACCTGTTGCCT (site GGTCATACTAG)", "recombinant barcode read abundance (log10)": 0.169}, {"sequence": "GGTCATGCTTGGGTTCTAACCTGTTGCCT (site GGTCATCCTAG)", "recombinant barcode read abundance (log10)": 0.131}, {"sequence": "GGTCATGCTTGGGTTCTAACCTGTTGCCT (site GGTCATGCTAG)", "recombinant barcode read abundance (log10)": 1.11}, {"sequence": "GGTCATGCTTGGGTTCTAACCTGTTGCCT (site GGTCATTCTAG)", "recombinant barcode read abundance (log10)": 0.0304}, {"sequence": "GGTCCACCTTGGGTTCTAACCTGTTGCCT (site AGTCCACCTAG)", "recombinant barcode read abundance (log10)": 0.386}, {"sequence": "GGTCCACCTTGGGTTCTAACCTGTTGCCT (site CGTCCACCTAG)", "recombinant barcode read abundance (log10)": 0.181}, {"sequence": "GGTCCACCTTGGGTTCTAACCTGTTGCCT (site GGTCCACCTAG)", "recombinant barcode read abundance (log10)": 1.07}, {"sequence": "GGTCCACCTTGGGTTCTAACCTGTTGCCT (site TGTCCACCTAG)", "recombinant barcode read abundance (log10)": 0.108}, {"sequence": "GGTCCCACTTGGGTTCTAACCTGTTGCCT (site GGGCTCACTAG)", "recombinant barcode read abundance (log10)": 0.0761}, {"sequence": "GGTCCCACTTGGGTTCTAACCTGTTGCCT (site GGTCCCACTAG)", "recombinant barcode read abundance (log10)": 0.943}, {"sequence": "GGTCCGTCTTGGGTTCTAACCTGTTGCAT (site AGTCGGTCTAT)", "recombinant barcode read abundance (log10)": 0.127}, {"sequence": "GGTCCGTCTTGGGTTCTAACCTGTTGCAT (site GGTCCGTCTAT)", "recombinant barcode read abundance (log10)": 1.16}, {"sequence": "GGTCCTACTTGGGTTCTAACCTGTTGCCT (site GATCCTACTAG)", "recombinant barcode read abundance (log10)": 0.241}, {"sequence": "GGTCCTACTTGGGTTCTAACCTGTTGCCT (site GCTCCTACTAG)", "recombinant barcode read abundance (log10)": 0.0585}, {"sequence": "GGTCCTACTTGGGTTCTAACCTGTTGCCT (site GGTCCTACTAG)", "recombinant barcode read abundance (log10)": 0.355}, {"sequence": "GGTCCTACTTGGGTTCTAACCTGTTGCCT (site GTTCCTACTAG)", "recombinant barcode read abundance (log10)": 0.187}, {"sequence": "GGTCGAACTTGGGTTCTAACCTGTTGCCT (site GGTCAAACTAG)", "recombinant barcode read abundance (log10)": 0.107}, {"sequence": "GGTCGAACTTGGGTTCTAACCTGTTGCCT (site GGTCCAACTAG)", "recombinant barcode read abundance (log10)": 0.127}, {"sequence": "GGTCGAACTTGGGTTCTAACCTGTTGCCT (site GGTCGAACTAG)", "recombinant barcode read abundance (log10)": 0.624}, {"sequence": "GGTCGAACTTGGGTTCTAACCTGTTGCCT (site GGTCTAACTAG)", "recombinant barcode read abundance (log10)": 0.0343}, {"sequence": "GGTCGCTCTTGGGTTCTAACCTGTTGCCT (site GGACGCTCTAG)", "recombinant barcode read abundance (log10)": 0.0961}, {"sequence": "GGTCGCTCTTGGGTTCTAACCTGTTGCCT (site GGTCGCTCTAG)", "recombinant barcode read abundance (log10)": 1.35}, {"sequence": "GGTGACTCTTGGGTTCTAACCTGTTGCCT (site GGTGACTCTAG)", "recombinant barcode read abundance (log10)": 1.15}]}]}
